Measured values published in ChEMBL document CHEMBL1201862, “PubChem BioAssay data set” (2004).
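The compound was tested at five concentrations on cells cultured in 96-well plates, with a 48-hour exposure period. GI50 = concentration required for 50% inhibition of growth.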 Activity calls are given as the source filed them. Rule as the data show it: active = GI50 up to about 1.1 µM and inactive = higher.

Experiments:
Assay in all cases: NCI-60 cell line screen, 48 h
SK-MEL-5 = test system: SK-MEL-5
UACC-257 = test system: UACC-257
OVCAR-5 = test system: OVCAR-5
A498 = test system: A498
SK-MEL-2 = test system: SK-MEL-2
M14 = test system: M14
CCRF-CEM = test system: CCRF-CEM
IGROV-1 = test system: IGROV-1
HOP-62 = test system: HOP-62
HCT-15 = test system: HCT-15
HCT-116 = test system: HCT-116
BT-549 = test system: BT-549
RPMI-8226 = test system: RPMI-8226
OVCAR-8 = test system: OVCAR-8
PC-3 = test system: PC-3
MDA-MB-231 = test system: MDA-MB-231
MDA-MB-435 = test system: MDA-MB-435
SN12C = test system: SN12C
HT-29 = test system: HT-29
TK-10 = test system: TK-10
CAKI-1 = test system: CAKI-1
SF-268 = test system: SF-268
MCF7 = test system: MCF7
UO-31 = test system: UO-31
UACC-62 = test system: UACC-62
EKVX = test system: EKVX
ACHN = test system: ACHN
RXF 393 = test system: RXF 393
SK-MEL-28 = test system: SK-MEL-28
SNB-75 = test system: SNB-75
SNB-19 = test system: SNB-19
MDA-N = test system: MDA-N
K562 = test system: K562
OVCAR-3 = test system: OVCAR-3
COLO 205 = test system: COLO 205
SR = test system: SR
MOLT-4 = test system: MOLT-4
Malme-3M = test system: Malme-3M
SF-539 = test system: SF-539
DU-145 = test system: DU-145
SW-620 = test system: SW-620
A549 = test system: A549
NCI/ADR-RES = test system: NCI/ADR-RES
KM12 = test system: KM12
T47D = test system: T47D
NCI-H460 = test system: NCI-H460
U-251 = test system: U-251
SK-OV-3 = test system: SK-OV-3
786-0 = test system: 786-0
HCC 2998 = test system: HCC 2998
NCI-H522 = test system: NCI-H522
LOX IMVI = test system: LOX IMVI
NCI-H226 = test system: NCI-H226
Hs-578T = test system: Hs-578T
OVCAR-4 = test system: OVCAR-4
NCI-H23 = test system: NCI-H23
HL-60 = test system: HL-60
SF-295 = test system: SF-295
HOP-92 = test system: HOP-92

COC1C(OC(N)=O)C(O)C(Oc2ccc3c(O)c(NC(=O)c4ccc(O)c(CC=C(C)C)c4)c(=O)oc3c2C)OC1(C)C (centres undefined)
GI50 (SK-MEL-5): > 100 µM (inactive)
GI50 (UACC-257): > 100 µM (inactive)
GI50 (OVCAR-5): > 100 µM (inactive)
GI50 (A498): > 100 µM (inactive)
GI50 (SK-MEL-2): > 100 µM (inactive)
GI50 (M14): > 100 µM (inactive)
GI50 (CCRF-CEM): 77.8 µM (inactive)
GI50 (IGROV-1): > 100 µM (inactive)
GI50 (HOP-62): > 100 µM (inactive)
GI50 (HCT-15): 60.5 µM
GI50 (HCT-116): > 100 µM (inactive)
GI50 (BT-549): > 100 µM (inactive)
GI50 (RPMI-8226): 28.4 µM (inactive)
GI50 (OVCAR-8): > 100 µM (inactive)
GI50 (PC-3): > 100 µM (inactive)
GI50 (MDA-MB-231): > 100 µM (inactive)
GI50 (MDA-MB-435): 71.8 µM (inactive)
GI50 (SN12C): > 100 µM (inactive)
GI50 (HT-29): > 100 µM (inactive)
GI50 (TK-10): > 10 µM (inactive)
GI50 (CAKI-1): > 100 µM (inactive)
GI50 (SF-268): > 100 µM (inactive)
GI50 (MCF7): > 100 µM (inactive)
GI50 (UO-31): > 100 µM (inactive)
GI50 (UACC-62): 69.2 µM (inactive)
GI50 (EKVX): > 100 µM (inactive)
GI50 (ACHN): > 100 µM (inactive)
GI50 (RXF 393): > 100 µM (inactive)
GI50 (SK-MEL-28): 73.8 µM (inactive)
GI50 (SNB-75): > 100 µM (inactive)
GI50 (SNB-19): > 100 µM (inactive)
GI50 (MDA-N): > 100 µM (inactive)
GI50 (K562): > 100 µM (inactive)
GI50 (OVCAR-3): > 100 µM (inactive)
GI50 (COLO 205): > 100 µM (inactive)
GI50 (SR): 18.4 µM (inactive)
GI50 (MOLT-4): 48 µM (inactive)
GI50 (Malme-3M): > 100 µM (inactive)
GI50 (SF-539): > 100 µM (inactive)
GI50 (DU-145): > 100 µM (inactive)
GI50 (SW-620): > 100 µM (inactive)
GI50 (A549): > 100 µM (inactive)
GI50 (NCI/ADR-RES): > 100 µM (inactive)
GI50 (KM12): 63 µM (inactive)
GI50 (T47D): > 100 µM (inactive)
GI50 (NCI-H460): 62.2 µM (inactive)
GI50 (U-251): 99.5 µM (inactive)
GI50 (SK-OV-3): > 100 µM (inactive)
GI50 (786-0): > 100 µM (inactive)
GI50 (HCC 2998): 47.5 µM (inactive)

CC(=O)N1C(C(=O)NC2CCCCC2)CSC1c1ccccc1 (centres undefined)
GI50 (NCI-H522): > 100 µM (inactive)
GI50 (SK-MEL-5): > 100 µM (inactive)
GI50 (UACC-257): > 100 µM (inactive)
GI50 (OVCAR-5): > 100 µM (inactive)
GI50 (A498): > 100 µM (inactive)
GI50 (LOX IMVI): > 100 µM (inactive)
GI50 (SK-MEL-2): > 100 µM (inactive)
GI50 (M14): > 100 µM (inactive)
GI50 (CCRF-CEM): > 100 µM (inactive)
GI50 (NCI-H226): 51.6 µM (inactive)
GI50 (IGROV-1): > 100 µM (inactive)
GI50 (Hs-578T): > 100 µM (inactive)
GI50 (HOP-62): > 100 µM (inactive)
GI50 (HCT-15): > 100 µM
GI50 (HCT-116): > 100 µM (inactive)
GI50 (BT-549): > 100 µM (inactive)
GI50 (RPMI-8226): > 100 µM (inactive)
GI50 (OVCAR-8): > 100 µM (inactive)
GI50 (PC-3): > 100 µM (inactive)
GI50 (MDA-MB-435): > 100 µM (inactive)
GI50 (OVCAR-4): > 100 µM (inactive)
GI50 (SN12C): > 100 µM (inactive)
GI50 (HT-29): > 100 µM (inactive)
GI50 (TK-10): > 100 µM (inactive)
GI50 (CAKI-1): > 100 µM (inactive)
GI50 (SF-268): > 100 µM (inactive)
GI50 (MCF7): > 100 µM (inactive)
GI50 (UO-31): > 100 µM (inactive)
GI50 (UACC-62): > 100 µM (inactive)
GI50 (NCI-H23): > 100 µM (inactive)
GI50 (EKVX): > 100 µM (inactive)
GI50 (ACHN): > 100 µM (inactive)
GI50 (HL-60): > 100 µM (inactive)
GI50 (SNB-75): > 100 µM (inactive)
GI50 (SNB-19): > 100 µM (inactive)
GI50 (MDA-N): > 100 µM (inactive)
GI50 (K562): > 100 µM (inactive)
GI50 (OVCAR-3): > 100 µM (inactive)
GI50 (SR): > 100 µM (inactive)
GI50 (MOLT-4): > 100 µM (inactive)
GI50 (Malme-3M): > 100 µM (inactive)
GI50 (SF-539): > 100 µM (inactive)
GI50 (DU-145): > 100 µM (inactive)
GI50 (SW-620): > 100 µM (inactive)
GI50 (A549): > 100 µM (inactive)
GI50 (NCI/ADR-RES): > 100 µM (inactive)
GI50 (KM12): > 100 µM (inactive)
GI50 (SF-295): > 100 µM (inactive)
GI50 (HOP-92): 68.2 µM (inactive)
GI50 (NCI-H460): > 100 µM (inactive)
GI50 (U-251): > 100 µM (inactive)
GI50 (SK-OV-3): > 100 µM (inactive)
GI50 (786-0): > 100 µM (inactive)
GI50 (HCC 2998): > 100 µM (inactive)
